Measurements: ChEMBL document CHEMBL3797052 (Eur J Med Chem, 2016)

System: HT-29
Experiment: Antiproliferative activity against human HT-29 cells assessed as growth inhibition after 48 hrs by sulforhodamine B assay
Format: functional
Details: HT-29, 48 h

Structure (SMILES) | GI50 | TGI
CNC(=O)c1cc(Oc2ccc(NC(=O)Nc3ccc(Cl)c(C(F)(F)F)c3)cc2)ccn1 [SORAFENIB] | 2 µM | 7.94 µM

System: not listed separately
Experiment: Antiproliferative activity against human SF295 cells assessed as growth inhibition after 48 hrs by sulforhodamine B assay
Format: functional
Details: SF-295, 48 h

Structure (SMILES) | TGI
CNC(=O)c1cc(Oc2ccc(NC(=O)Nc3ccc(Cl)c(C(F)(F)F)c3)cc2)ccn1 [SORAFENIB] | 5.01 µM

Same assay, conditions: SF-295, 48 h, read-out: LC50 (the source's name)

Structure (SMILES) | CC50
CNC(=O)c1cc(Oc2ccc(NC(=O)Nc3ccc(Cl)c(C(F)(F)F)c3)cc2)ccn1 [SORAFENIB] | 31.6 µM

System: MCF7
Experiment: Antiproliferative activity against human MCF7 cells assessed as growth inhibition after 48 hrs by sulforhodamine B assay
Format: functional
Details: MCF7, 48 h

Structure (SMILES) | GI50 | TGI
CNC(=O)c1cc(Oc2ccc(NC(=O)Nc3ccc(Cl)c(C(F)(F)F)c3)cc2)ccn1 [SORAFENIB] | 2.51 µM | 7.94 µM

Same assay, conditions: MCF7, 48 h, read-out: LC50 (the source's name)

Structure (SMILES) | CC50
CNC(=O)c1cc(Oc2ccc(NC(=O)Nc3ccc(Cl)c(C(F)(F)F)c3)cc2)ccn1 [SORAFENIB] | 50.1 µM

System: not listed separately
Experiment: Antiproliferative activity against human OVCAR4 cells assessed as growth inhibition after 48 hrs by sulforhodamine B assay
Format: functional
Details: OVCAR-4, 48 h

Structure (SMILES) | GI50 | TGI
CNC(=O)c1cc(Oc2ccc(NC(=O)Nc3ccc(Cl)c(C(F)(F)F)c3)cc2)ccn1 [SORAFENIB] | 3.16 µM | 12.6 µM

Same assay, conditions: OVCAR-4, 48 h, read-out: LC50 (the source's name)

Structure (SMILES) | CC50
CNC(=O)c1cc(Oc2ccc(NC(=O)Nc3ccc(Cl)c(C(F)(F)F)c3)cc2)ccn1 [SORAFENIB] | 100 µM

System: NCI-H522
Experiment: Antiproliferative activity against human NCI-H522 cells assessed as growth inhibition after 48 hrs by sulforhodamine B assay
Format: functional
Details: NCI-H522, 48 h

Structure (SMILES) | GI50 | TGI
CNC(=O)c1cc(Oc2ccc(NC(=O)Nc3ccc(Cl)c(C(F)(F)F)c3)cc2)ccn1 [SORAFENIB] | 2 µM | 6.31 µM

System: not listed separately
Experiment: Antiproliferative activity against human IGROV1 cells assessed as growth inhibition after 48 hrs by sulforhodamine B assay
Format: functional
Details: IGROV-1, 48 h

Structure (SMILES) | GI50 | TGI
CNC(=O)c1cc(Oc2ccc(NC(=O)Nc3ccc(Cl)c(C(F)(F)F)c3)cc2)ccn1 [SORAFENIB] | 2.51 µM | 15.9 µM

Same assay, conditions: IGROV-1, 48 h, read-out: LC50 (the source's name)

Structure (SMILES) | CC50
CNC(=O)c1cc(Oc2ccc(NC(=O)Nc3ccc(Cl)c(C(F)(F)F)c3)cc2)ccn1 [SORAFENIB] | 79.4 µM

System: not listed separately
Experiment: Antiproliferative activity against human UO31 cells assessed as growth inhibition after 48 hrs by sulforhodamine B assay
Format: functional
Details: UO-31, 48 h

Structure (SMILES) | GI50 | TGI
CNC(=O)c1cc(Oc2ccc(NC(=O)Nc3ccc(Cl)c(C(F)(F)F)c3)cc2)ccn1 [SORAFENIB] | 2.51 µM | 7.94 µM

Same assay, conditions: UO-31, 48 h, read-out: LC50 (the source's name)

Structure (SMILES) | CC50
CNC(=O)c1cc(Oc2ccc(NC(=O)Nc3ccc(Cl)c(C(F)(F)F)c3)cc2)ccn1 [SORAFENIB] | 39.8 µM

System: not listed separately
Experiment: Antiproliferative activity against human HL-60(TB) cells assessed as growth inhibition after 48 hrs by sulforhodamine B assay
Format: functional
Details: HL-60, 48 h

Structure (SMILES) | GI50
CNC(=O)c1cc(Oc2ccc(NC(=O)Nc3ccc(Cl)c(C(F)(F)F)c3)cc2)ccn1 [SORAFENIB] | 1.58 µM

System: M14
Experiment: Antiproliferative activity against human M14 cells assessed as growth inhibition after 48 hrs by sulforhodamine B assay
Format: functional
Details: M14, 48 h

Structure (SMILES) | GI50 | TGI
CNC(=O)c1cc(Oc2ccc(NC(=O)Nc3ccc(Cl)c(C(F)(F)F)c3)cc2)ccn1 [SORAFENIB] | 2 µM | 5.01 µM

Same assay, conditions: M14, 48 h, read-out: LC50 (the source's name)

Structure (SMILES) | CC50
CNC(=O)c1cc(Oc2ccc(NC(=O)Nc3ccc(Cl)c(C(F)(F)F)c3)cc2)ccn1 [SORAFENIB] | 25.1 µM
